# Experimental data published in patent EP0940081A1, “Combinations of active agents and disinfectants, preservatives and antiseptics containing same” (Bode Chemie GmbH & Co., priority 1998, dated 1999).
# Like-named read-outs stand apart in the source and are kept apart here.
# Experiments:
# [1] = system: FL-Linie (menschliche Amnionzellen); assay: Cytotoxicity, cell count of monolayer culture after 24 h exposure; type: cell-based, human; conditions: Prüfkonzentration 0,005 %; 24 h; 1440 min
# Experimental: (§1) Methodik: Die Zytotoxizität wird an der FL-Linie (menschliche Amnionzellen) geprüft. 2-3 Tage nach der Zelleinsaat werden die Zellen, nachdem sie als einschichtige Zellkultur (Monolayer) vorliegen, nach Medienwechsel für 24 h mit der Prüfsubstanz exponiert, danach abgelöst und die Zellzahl in % zur Kontrolle mit dem Zellzähler Universal 87001 (mölab, Hilden) ermittelt.
# [2] = as above; type: cell-based, human; conditions: human, fl amnion cells, 24 h, read-out: Median der Zellzahl
# Experimental: as §1
# Pseudomonas aeruginosa = assay: Agar incorporation test, bacteriostatic activity; type: cell-based; design: key to Bakteriostatische Wirksamkeit (Wachstum): ⊕⊕: ungehemmtes Wachstum; ⊕: vermindertes Wachstum; -: absolute Hemmung (a. H.); conditions: for Bakteriostatische Wirksamkeit (Wachstum): 24 h bei 36 °C
# Source text: (§2) Methodik: Percarbamid und Dodecylthiouroniumchlorid werden unter städigem Durchmischen bis zur vollständigen Homogenisierung erwärmt. Die Prüfung der Kombination im Vergleich zu den entsprechenden Monowirkstoffen auf bakteriostatische Wirksamkeit erfolgte im Agarinkorporationstest. Die zu untersuchenden Substanzen wurden in Wasser standardisierter Härte gelöst. Die Konzentration der Testsubstanzen im Nähragar wurde in einer geometrischen Reihe auf der Basis 2 abgestuft. Zum Beimpfen der Testplatten wurden die im Beispiel 1 genannten Testkeime 6 h in Caseinpepton-Sojamehlpepton-Lösung bebrütet und so in eine logarithmische Wachstumsphase gebracht. Danach wurden die Agarplatten sternförmig sektorenweise mit jeweils einer ? abgestrichenen Öse beimpft. Der Sektor von Proteus mirabilis wurde durch Gräben abgetrennt, um das Schwärmen zu verhindern. Nach 24 h Bebrütung bei 36 °C erfolgte die Bewertung des Bakterienwachstums unter Vergleich mit substanzfreien Kontrollplatten nach folgendem Schema: ++++ ungehemmtes Wachstum +++ geringe Wachstumshemmung (maximal ¾ des Wachstums der Kontrollen) ++ mäßige Wachstumshemmung (maximal ½ des Wachstums der Kontrollen) + starke Wachstumshemmung (maximal ¼ des Wachstums der Kontrollen) Das sog. ? verminderte Wachstum" (v. W.) umfaßt die Bereiche + bis +++ - absolute Hemmung (a. H.)
# (§3) In den Tabellen 5, 6 und 7 bedeuten ⊕⊕ ungehemmtes Wachstum und ⊕ vermindertes Wachstum.
# Proteus mirabilis = assay: Agar incorporation test, bacteriostatic activity; type: cell-based; design: key: ⊕⊕: ungehemmtes Wachstum; ⊕: vermindertes Wachstum; -: absolute Hemmung (a. H.); conditions: 24 h bei 36 °C
# Source text: as §2, §3
# Escherichia coli = assay: Agar incorporation test, bacteriostatic activity; type: cell-based; design: key: ⊕⊕: ungehemmtes Wachstum; ⊕: vermindertes Wachstum; -: absolute Hemmung (a. H.); conditions: 24 h bei 36 °C
# Source text: as §2, §3
# Staphylococcus aureus [3] = assay: Agar incorporation test, bacteriostatic activity; type: cell-based; design: key: ⊕⊕: ungehemmtes Wachstum; ⊕: vermindertes Wachstum; -: absolute Hemmung (a. H.); conditions: 24 h bei 36 °C
# Source text: as §2, §3
# Enterococcus faecium = assay: Agar incorporation test, bacteriostatic activity; type: cell-based; design: key: ⊕⊕: ungehemmtes Wachstum; ⊕: vermindertes Wachstum; -: absolute Hemmung (a. H.); conditions: 24 h bei 36 °C
# Source text: as §2, §3
# Staphylococcus aureus [4] = assay: Agar diffusion test, inhibition zone; type: cell-based; conditions: Aktivator ja, 24 h
# Experimental: Methodik: Decylthiouroniumbromid wurde in abgestuften Konzentrationen im Agar inkorporiert. In Stanzlöcher wurde eine Natriumperboratlösung ohne und mit Aktivierung pipettiert. Die Platten wurden mit Staphylococcus aureus beimpft und 24 h bebrütet. Der entstehende Hemmhof wurde gemessen.
# [5] = Konzentration in Wasser 0,0015 %
# [6] = Konzentration in Wasser 0,003 %
# [7] = Konzentration in Wasser 0,006 %
# [8] = Konzentration in Wasser 0,012 %
# [9] = Konzentration in Wasser 0,025 %
structure (smiles),measurement,setting,value
CCCCCCCCCCCCSC(=N)N [Dodecylthiouroniumchlorid],Median der Zellzahl,[1],"69,9 % der Kontrolle"
same,viability at 24 h,"[2]; Prüfkonzentration 0,0001 %",101%
same,viability at 24 h,"[2]; Prüfkonzentration 0,005 %",70%
same,Bakteriostatische Wirksamkeit (Wachstum),"Pseudomonas aeruginosa; Konzentration in Wasser 0,1 %",-
same,Bakteriostatische Wirksamkeit (Wachstum),"Pseudomonas aeruginosa; Konzentration in Wasser 0,2 %",-
same,Bakteriostatische Wirksamkeit (Wachstum),"Pseudomonas aeruginosa; Konzentration in Wasser 0,4 %",-
same,Bakteriostatische Wirksamkeit (Wachstum),"Pseudomonas aeruginosa; Konzentration in Wasser 0,05 %",⊕
same,Bakteriostatische Wirksamkeit (Wachstum),"Pseudomonas aeruginosa; Konzentration in Wasser 0,8 %",-
same,Bakteriostatische Wirksamkeit (Wachstum),Pseudomonas aeruginosa; [5],⊕⊕
same,Bakteriostatische Wirksamkeit (Wachstum),Pseudomonas aeruginosa; [6],⊕⊕
same,Bakteriostatische Wirksamkeit (Wachstum),Pseudomonas aeruginosa; [7],⊕⊕
same,Bakteriostatische Wirksamkeit (Wachstum),Pseudomonas aeruginosa; [8],⊕⊕
same,Bakteriostatische Wirksamkeit (Wachstum),Pseudomonas aeruginosa; [9],⊕⊕
same,"Konzentration, durch die Pseudomonas aeruginosa gehemmt wird (minimale Hemmkonzentration)","Pseudomonas aeruginosa; single substance, resistentester Testkeim","0,1%"
same,Bakteriostatische Wirksamkeit (Wachstum),"Proteus mirabilis; Konzentration in Wasser 0,1 %",-
same,Bakteriostatische Wirksamkeit (Wachstum),"Proteus mirabilis; Konzentration in Wasser 0,2 %",-
same,Bakteriostatische Wirksamkeit (Wachstum),"Proteus mirabilis; Konzentration in Wasser 0,4 %",-
same,Bakteriostatische Wirksamkeit (Wachstum),"Proteus mirabilis; Konzentration in Wasser 0,05 %",-
same,Bakteriostatische Wirksamkeit (Wachstum),"Proteus mirabilis; Konzentration in Wasser 0,8 %",-
same,Bakteriostatische Wirksamkeit (Wachstum),Proteus mirabilis; [5],⊕⊕
same,Bakteriostatische Wirksamkeit (Wachstum),Proteus mirabilis; [6],⊕⊕
same,Bakteriostatische Wirksamkeit (Wachstum),Proteus mirabilis; [7],⊕⊕
same,Bakteriostatische Wirksamkeit (Wachstum),Proteus mirabilis; [8],⊕
same,Bakteriostatische Wirksamkeit (Wachstum),Proteus mirabilis; [9],⊕
same,Bakteriostatische Wirksamkeit (Wachstum),"Escherichia coli; Konzentration in Wasser 0,1 %",-
same,Bakteriostatische Wirksamkeit (Wachstum),"Escherichia coli; Konzentration in Wasser 0,2 %",-
same,Bakteriostatische Wirksamkeit (Wachstum),"Escherichia coli; Konzentration in Wasser 0,4 %",-
same,Bakteriostatische Wirksamkeit (Wachstum),"Escherichia coli; Konzentration in Wasser 0,05 %",-
same,Bakteriostatische Wirksamkeit (Wachstum),"Escherichia coli; Konzentration in Wasser 0,8 %",-
same,Bakteriostatische Wirksamkeit (Wachstum),Escherichia coli; [5],⊕⊕
same,Bakteriostatische Wirksamkeit (Wachstum),Escherichia coli; [6],⊕⊕
same,Bakteriostatische Wirksamkeit (Wachstum),Escherichia coli; [7],⊕⊕
same,Bakteriostatische Wirksamkeit (Wachstum),Escherichia coli; [8],⊕
same,Bakteriostatische Wirksamkeit (Wachstum),Escherichia coli; [9],-
same,Bakteriostatische Wirksamkeit (Wachstum),"Staphylococcus aureus [3]; Konzentration in Wasser 0,1 %",-
same,Bakteriostatische Wirksamkeit (Wachstum),"Staphylococcus aureus [3]; Konzentration in Wasser 0,2 %",-
same,Bakteriostatische Wirksamkeit (Wachstum),"Staphylococcus aureus [3]; Konzentration in Wasser 0,4 %",-
same,Bakteriostatische Wirksamkeit (Wachstum),"Staphylococcus aureus [3]; Konzentration in Wasser 0,05 %",-
same,Bakteriostatische Wirksamkeit (Wachstum),"Staphylococcus aureus [3]; Konzentration in Wasser 0,8 %",-
same,Bakteriostatische Wirksamkeit (Wachstum),Staphylococcus aureus [3]; [5],⊕⊕
same,Bakteriostatische Wirksamkeit (Wachstum),Staphylococcus aureus [3]; [6],⊕⊕
same,Bakteriostatische Wirksamkeit (Wachstum),Staphylococcus aureus [3]; [7],-
same,Bakteriostatische Wirksamkeit (Wachstum),Staphylococcus aureus [3]; [8],-
same,Bakteriostatische Wirksamkeit (Wachstum),Staphylococcus aureus [3]; [9],-
same,Bakteriostatische Wirksamkeit (Wachstum),"Enterococcus faecium; Konzentration in Wasser 0,1 %",-
same,Bakteriostatische Wirksamkeit (Wachstum),"Enterococcus faecium; Konzentration in Wasser 0,2 %",-
same,Bakteriostatische Wirksamkeit (Wachstum),"Enterococcus faecium; Konzentration in Wasser 0,4 %",-
same,Bakteriostatische Wirksamkeit (Wachstum),"Enterococcus faecium; Konzentration in Wasser 0,05 %",-
same,Bakteriostatische Wirksamkeit (Wachstum),"Enterococcus faecium; Konzentration in Wasser 0,8 %",-
same,Bakteriostatische Wirksamkeit (Wachstum),Enterococcus faecium; [5],⊕⊕
same,Bakteriostatische Wirksamkeit (Wachstum),Enterococcus faecium; [6],⊕⊕
same,Bakteriostatische Wirksamkeit (Wachstum),Enterococcus faecium; [7],⊕
same,Bakteriostatische Wirksamkeit (Wachstum),Enterococcus faecium; [8],-
same,Bakteriostatische Wirksamkeit (Wachstum),Enterococcus faecium; [9],-
CCCCCCCCCCSC(=N)N [Decylthiouroniumbromid],viability at 24 h,"[2]; Prüfkonzentration 0,0001 %",96.8%
same,viability at 24 h,"[2]; Prüfkonzentration 0,005 %",33.5%
same,Hemmhofgröße,"Staphylococcus aureus [4]; combination: 0,0009% Decylthiouroniumbromid im Agar with Perborat 0,5% im Stanzloch",19 mm
same,Hemmhofgröße,"Staphylococcus aureus [4]; combination: 0,0019% Decylthiouroniumbromid im Agar with Perborat 0,5% im Stanzloch",24 mm
